Assays:
[1] = target: T1, human CD20 (human, UniProt P11836 1-297); test: flow cytometry, FITC-conjugated antibody on freshly isolated B cells of five patients after 80 mg atorvastatin
T1 sequence (looked up): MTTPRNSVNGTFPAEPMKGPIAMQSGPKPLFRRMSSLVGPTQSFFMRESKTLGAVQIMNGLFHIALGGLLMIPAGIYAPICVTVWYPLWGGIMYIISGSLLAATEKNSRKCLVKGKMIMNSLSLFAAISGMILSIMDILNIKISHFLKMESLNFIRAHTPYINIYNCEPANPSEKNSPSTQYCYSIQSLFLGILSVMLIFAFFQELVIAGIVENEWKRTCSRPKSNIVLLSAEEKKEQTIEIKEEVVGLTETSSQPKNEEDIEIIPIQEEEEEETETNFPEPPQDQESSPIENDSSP
From the text: Informed consent was provided according to the Declaration of Helsinki.

[2] = test system: RAJI-CD20high cells; test: Rituximab-mediated CDC of RAJI-CD20high cells, MTT assay; assay type: cell-based, human; conditions: for rituximab-mediated CDC after pre-incubation: Berberine chloride 24 hours or Fillipin III 30 minutes, 10 μg/ml rituximab, 10% serum
From the text: Statins are competitive inhibitors of 3-hydroxy-3-methylglutaryl-coenzyme A reductase (HMG-CoAR). HMG-CoAR is a rate-limiting enzyme of the mevalonate pathway essential for the synthesis of isoprenoid compounds including cholesterol (McTaggart S J (2006) Isoprenylated proteins. Cell Mol Life Sci 63:255-267). By inhibiting HMG-CoAR, statins can lower the cholesterol blood level and extract cholesterol from the cell membrane. To determine the effect of statin-mediated cholesterol depletion on immunotherapy RAJI-CD20high cells were cultured with a concentration range of lovastatin or diluent for 48 hours.
Cell viability was measured in a MTT assay in which 3-(4,5-dimethylthiazol-2-yl)-2,5-diphenyltetrazolium bromide (MTT) solution (5 mg/ml, Roche, Diagnostics, Almere, The Netherlands) was added to each well (flat-bottom microtiter plates; Nunc, Rochester, N.Y.). The reaction was stopped after 4 hours of incubation at 37° C. by the addition of 100 μl of 20% SDS (Roche Diagnostics, Almere, The Netherlands). After overnight incubation at 37° C. the absorbance of the samples was measured at 550-525 nm using an Elisa reader (EL808x, Biotek instruments, Highland park, Vt., USA). Cytotoxicity was expressed as a relative viability of the rituximab-mediated CDC of lovastatin-treated cells compared to cells incubated with medium only and was calculated as follows: relative viability=[(Ae−Ab)/(Ac−Ab)]*100, where Ab is the background absorbance, Ae is experimental absorbance of the lysed cells and Ac is the absorbance of untreated cells. The viability was expressed as percentage survival in comparison to non-cholesterol depleted cells (control).
RAJI-CD20high cells were incubated with diluents (control) or a concentration range of either Fillipin III for 30 minutes or Berberine chloride for 24 hours. […] The cytotoxic effects were measured in a MTT assay. […] After overnight incubation at 37° C. the absorbance of the samples was measured at 550-525 nm using an Elisa reader (EL808x, Biotek instruments, Highland park, Vt., USA). […]

[3] = test system: CD20 mRNA; test: CD20 mRNA level by RT-PCR in RAJI-CD20high cells; assay type: cell-based, human; conditions: 10 μM, time course over 48 hours
Procedure: To analyze whether lovastatin treatment would influence CD20 expression mRNA expression of the target was determined. RAJI-CD20high cells were incubated with either diluent (control) or 10 μM of lovastatin for different time periods (1-48 hours). Cells were washed twice with PBS, pelleted and treated with 1 ml of TRIzol Reagent (Invitrogen) to extract total RNA according to the manufacturer's protocol. RNA concentration was measured with Eppendorf Biophotometer (Eppendorf, Hamburg, Germany). The first strand cDNA synthesis containing 1 μg of total RNA was primed with oligo(dT) using Omniscript RT Kit (Qiagen, Chatsworth, Calif.). Primers used for CD20 PCR amplification were: forward-5′ […]3′ and reverse-5′ […]3′. The cycling conditions in the Mastercycler personal (Eppendorf) consisted of a first step of 94° C. denaturation for 10 minutes, followed by 35 cycles of annealing at 54° C. for 60 sec, extension at 75° C. for 90 sec, and denaturation at 94° C. for 30 sec, with a final elongation step at 75° C. for 10 minutes using HotStart Taq DNA Polymerase (Qiagen). Amplification products were analyzed by 1.5% agarose gel electrophoresis.

[4] = test system: CD20 protein; test: Total cellular CD20 protein level by Western blotting in RAJI-CD20high cells; assay type: cell-based, human; conditions: 5-30 μM, 48 hours
Procedure: Control cells or cells incubated with 10 μM lovastatin for 48 hours, washed twice with PBS, were pelleted and lysed with radioimmunoprecipitation assay (RIPA) buffer containing Tris base 50 mM, NaCl 150 mM, NP-40 1%, sodium deoxycholate 0.25% and EDTA 1 mM supplemented with Complete® protease inhibitor cocktail tablets (Roche Diagnostics, Mannheim, Germany). Protein concentration was measured using Bio-Rad Protein Assay (BioRad, Hercules, Calif., USA). Equal amounts of whole cell proteins were separated on 12.5% SDS-polyacrylamide gel, transferred onto Protran® nitrocellulose membranes (Schleicher and Schuell BioScience Inc., Keene, N.H.), blocked with TBST (Tris buffered saline (pH 7.4) and 0.05% Tween 20) supplemented with 5% nonfat milk and 5% FBS. The following mAb (at 1:1000 dilution) were used for the overnight incubation: anti-CD20 (NCL-CD20-L26, Novocastra Laboratories Ltd, UK), anti-ICAM-1 (Santa Cruz, Santa Cruz, Calif.). After extensive washing with TBST, the membranes were incubated for 45 minutes with peroxidase conjugated ImmunoPure Goat Anti-Mouse IgG [F(ab′)2] (Jackson ImmunoResearch Laboratories Inc, Pa.). The chemiluminescence reaction for horseradish peroxidase was developed using SuperSignal WestPico Trail Kit® (Pierce, Rockford, Ill.) on a standard x-ray film. […]

[5] = test system: CD20 in the plasma membrane; test: CD20 localization in RAJI-CD20high cells (immunofluorescence, surface biotinylation); assay type: cell-based, human
Procedure: To examine localization of CD20 in RAJI-CD20high cells a double immunofluorescence staining with anti-CD20 mAb directed against an extracellular conformational epitope of CD20, and, after cell permeabilization, with a mAb against a linear epitope in the cytosolic tail of this molecule was performed. Control and lovastatin-pretreated RAJI-CD20high cells were stained in suspension at a density of 5×10^5/ml with FITC-conjugated B9E9 (1:10 in PBS, Immunotech Coulter Company, France) for 30 minutes at room temperature. After washing in PBS (three times), 200 μl of the cell suspension was spun onto a Cytospin slide. The slides were air-dried, acetone-fixed for 15 minutes at room temperature, washed three times with PBS, incubated with anti-CD20 mAb (Novocastra) (1:100 in PBS with 5% normal donkey serum (Jackson)) for 60 minutes at room temperature. The slides were washed three times in PBS and incubated with donkey anti-mouse Alexa555 conjugated antibody (Molecular Probes, CA) (1:200 for 30 minutes at room temperature). The slides were washed, mounted in Vectashield (Vector Laboratories, CA.) and examined by fluorescence microscopy (Leica TCS SP2). […] After five washes, gel-bound complexes were boiled in 2× Laemmli sample buffer and analyzed for CD20 by Western blotting using anti-CD20 mAb (NCL-CD20-L26, Novocastra) as described in Example 8.

[6] = test system: cell surface proteins on RAJI cells; test: FACS binding of mAbs to cell surface proteins on RAJI cells; assay type: cell-based, human
Procedure: B cells (either non-treated cells, cholesterol-depleted cells via MβCD or lovastatin, or cholesterol-reconstituted cells) were characterized for quantitative surface expression of the B cell markers CD19, CD20, and CD21, the T-cell marker CD3, complement regulatory proteins CD55 and CD59, and HLA-DR and CD81 by direct immunofluorescence. […] After washing twice with FACS buffer (PBS, 0.1% Bovine Serum Albumine, 0.02% Sodium Azide), the cells were analyzed on a flow cytometer.

[7] = test system: CD20 on RAJI-CD20high cells; test: Flow cytometry binding of FITC-conjugated B9E9 to RAJI-CD20high cells; set-up: species or system human; conditions: Berberine chloride 24 hours; Fillipin III 30 minutes
Procedure: To deplete cholesterol from the cell membrane, methyl-beta-cyclodextrin (MβCD, Sigma, Zwijndrecht, The Netherlands) was added in varying concentrations to Daudi cells and RAJI-CD20high cells and incubated for 30 minutes at 37° C. under gentle shaking conditions. After incubation the cells were washed twice in PBS and resuspended in test medium to a concentration of 2×10^6 viable cells/ml. MβCD-treated Daudi cells (1×10^5) were incubated with a saturating concentration of FITC-conjugated human anti-CD20 mAb 2F2 or the anti-CD20 mAb B9E9 (Beckman Coulter Inc., Fullerton, Calif.) for 30 minutes at 4° C. After washing twice with FACS buffer (PBS, 0.1% Bovine Serum Albumine, 0.02% Sodium Azide), cells were analyzed on a FACS Calibur (Becton Dickinson, Breda, The Netherlands). […] Binding is expressed as mean fluorescence intensity. […]
To determine the effect of adding cholesterol on CD20 mAb binding, all cell lines (1×10^5) were incubated with a saturating concentration of B9E9 for 30 minutes at 4° C. After washing twice with FACS buffer (PBS, 0.1% Bovine Serum Albumine, 0.02% Sodium Azide), the cells were analyzed on a FACS Calibur (Becton Dickinson, Breda, The Netherlands).
Cholesterol was depleted from the cell membrane of various B cells using varying concentrations of lovastatin (as described in Example 3) and CD20 mAb binding was determined. […]

[8] = target: T1, human CD20; test: cell-based or functional assay
[9] = increasing concentrations of MβCD

CD20 mAb B1 (GlaxoSmithKline) (antibody)
average decrease of the CD20/CD21 MFI ratio, day 3 against day 0 (so in the source) [1]: 96%

CC[C@H](C)C(=O)O[C@H]1C[C@@H](C)C=C2C=C[C@H](C)[C@H](CC[C@@H]3C[C@@H](O)CC(=O)O3)[C@H]21 [lovastatin]
protection from rituximab-induced CDC (cell viability) ([2]; lovastatin concentration range 48 hours, 10% complement active serum): concentration-dependent protection | mRNA level for CD20 [3]: remained constant | total cellular CD20 protein level [4]: did not influence | binding of mAb directed to the extracellular epitope of CD20 ([5]; 48-hour pre-treatment, confocal immunofluorescence): nearly completely abrogated binding | CD20 detectable among biotinylated surface proteins ([5]; treated cells compared with controls): comparable amounts | decrease of mAb binding of CD21 ([6]; 10 μM lovastatin): not | mAb binding of CD19 and CD20 ([6]; 10 μM lovastatin): clearly decreased

Fillipin III
binding of B9E9 to cells treated with cholesterol-modulating drug [7]: not observed | rituximab-mediated CDC after pre-incubation [2]: remained sensitive

methyl-beta-cyclodextrin [MβCD]
binding of mAbs against CD19, CD20, CD55, CD59, HLA-DR and CD81 [6, 9]: negatively correlated | mAb binding to CD21 [6, 9]: not affected

COc1ccc2cc3[n+](cc2c1OC)CCc1cc2c(cc1-3)OCO2 [Berberine chloride]
binding of B9E9 to cells treated with cholesterol-modulating drug [7]: impaired binding | rituximab-mediated CDC after pre-incubation [2]: significantly abrogated

B1: rituximab (antibody, V domains shown)
VH: QVQLQQPGAELVKPGASVKMSCKASGYTFTSYNMHWVKQTPGRGLEWIGAIYPGNGDTSYNQKFKGKATLTADKSSSTAYMQLSSLTSEDSAVYYCARSTYYGGDWYFNVWGAGTTVTVSA
VL: QIVLSQSPAILSASPGEKVTMTCRASSSVSYIHWFQQKPGSSPKPWIYATSNLASGVPVRFSGSGSGTSYSLTISRVEAEDAATYYCQQWTSNPPTFGGGTKLEIK
EC50 of rituximab-mediated ADCC, 51Cr release, lovastatin-treated RAJI cells, PBMC effector cells [8]: 0.082 µg/mL | EC50 of rituximab-mediated ADCC, 51Cr release, non-treated RAJI cells, PBMC effector cells [8]: 0.024 µg/mL

B2: CD20 mAb 11B8 (antibody, V domains shown)
VH: EVQLVQSGGGLVHPGGSLRLSCTGSGFTFSYHAMHWVRQAPGKGLEWVSIIGTGGVTYYADSVKGRFTISRDNVKNSLYLQMNSLRAEDMAVYYCARDYYGAGSFYDGLYGMDVWGQGTTVTVSS
VL: EIVLTQSPATLSLSPGERATLSCRASQSVSSYLAWYQQKPGQAPRLLIYDASNRATGIPARFSGSGSGTDFTLTISSLEPEDFAVYYCQQRSDWPLTFGGGTKVEIK
average decrease of the CD20/CD21 MFI ratio, day 3 against day 0 (so in the source) [1]: 84%

Source: patent US20110091473A1, “NOVEL ANTIBODY THERAPIES” (GENMAB A/S, priority 2007, published 2011)
